Laboratory results: article PMC10349922 (Bioconjugate chemistry, 2023)

Target: human Galectin-3 (Gal-3); His-Galectin-3 (Homo sapiens, UniProt P17931)
Experiment: competitive enzyme-linked lectin assay
Format: binding
Settings: His-Galectin-3 vs S0G2-BSA coated plate, PBS, r.t.

human Galectin-3 (Gal-3); His-Galectin-3, sequence (P17931 2-250): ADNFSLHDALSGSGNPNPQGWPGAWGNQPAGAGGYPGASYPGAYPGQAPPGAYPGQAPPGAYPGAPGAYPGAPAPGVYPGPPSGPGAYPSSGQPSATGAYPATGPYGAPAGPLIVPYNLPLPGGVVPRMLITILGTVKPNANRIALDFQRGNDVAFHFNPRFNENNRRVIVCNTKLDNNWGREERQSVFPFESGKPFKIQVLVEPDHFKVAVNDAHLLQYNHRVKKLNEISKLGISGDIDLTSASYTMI

CC(=O)N[C@@H]1[C@@H](O)[C@H](O[C@@H]2O[C@H](CO)[C@@H](O[C@@H]3O[C@H](CO[C@H]4O[C@H](CO)[C@@H](O)[C@H](O)[C@@H]4O[C@@H]4O[C@H](CO)[C@@H](O[C@@H]5O[C@H](CO)[C@H](O)[C@H](O)[C@H]5O)[C@H](O)[C@H]4NC(C)=O)[C@@H](O)[C@H](O[C@H]4O[C@H](CO)[C@@H](O)[C@H](O)[C@@H]4O[C@@H]4O[C@H](CO)[C@@H](O[C@@H]5O[C@H](CO)[C@H](O)[C@H](O)[C@H]5O)[C@H](O)[C@H]4NC(C)=O)[C@@H]3O)[C@H](O)[C@H]2NC(C)=O)[C@@H](CO)O[C@H]1NC(=O)C[C@H](N)C(=O)O [compound 1, S0G2-Asn]
IC50: 7.8 µM
